Some test systems named below: 786-0 renal; DU-145 prostate; HOP-62 NSCLC; KM12 colon; M14 melanoma; MDA-MB-231 breast; MDA-N; NCI-H23 lung; NCI-H522 lung; OVCAR-4 ovarian; PC-3 prostate; RPMI-8226 leukemia; SF-295 CNS; SK-MEL-2 melanoma; SN12C renal; SR leukemia; T-47D breast; UACC-257 melanoma; UACC-62 melanoma; UO-31 renal.
What all share (test): DTP human tumour cell line panel, 48 h

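Protocol summary: plate cells (96-well), add compound at 5 concentrations, incubate 48 h, interpolate endpoints linearly. Definition used: TGI = concentration required for complete inhibition of growth.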

`O=C(NCCc1ccccn1)c1ccc2cc(C(=O)N3CC(CCl)c4ccc([N+](=O)[O-])cc43)[nH]c2c1` (stereo not given): the TGI with 786-0 renal was over 63 µM; in the assay on DU-145 prostate, over 100 µM; with HOP-62 NSCLC it was 48.4 µM; in the assay with KM12 colon, over 100 µM; in the assay with M14 melanoma it was over 100 µM; in the assay with MDA-MB-231 breast it was over 66.8 µM. Moreover, the TGI was over 100 µM with MDA-N; over 100 µM in the assay on NCI-H23 lung; over 86.7 µM in the assay on NCI-H522 lung; 48.3 µM in the assay with OVCAR-4 ovarian; over 100 µM in the assay with PC-3 prostate; over 100 µM in the assay with RPMI-8226 leukemia. Besides, the TGI with SF-295 CNS is over 68.5 µM; in the assay on SK-MEL-2 melanoma, over 100 µM; with SN12C renal, over 100 µM; in the assay on SR leukemia, over 100 µM; in the assay with T-47D breast, over 100 µM; in the assay with UACC-257 melanoma, over 100 µM. The values for the TGI in the assay on UACC-62 melanoma and in the assay with UO-31 renal were over 67.4 µM and over 92.8 µM, respectively.

For `CC1=C(C)C2(C#N)C(=O)N3C(=NC(c4ccco4)NC3c3ccco3)C2(C#N)C(c2ccco2)N1` (stereo not given), the TGI with 786-0 renal, in the assay with DU-145 prostate, in the assay on HOP-62 NSCLC, in the assay on KM12 colon, with M14 melanoma and in the assay with MDA-MB-231 breast was over 100 µM throughout. In addition, the concentration for total growth inhibition (TGI) in the assay with MDA-N, in the assay on NCI-H23 lung, in the assay with NCI-H522 lung, in the assay on OVCAR-4 ovarian, in the assay with PC-3 prostate and with RPMI-8226 leukemia was over 100 µM each time. For the same compound, the TGI in the assay with SF-295 CNS, in the assay with SK-MEL-2 melanoma, in the assay on SN12C renal, in the assay with SR leukemia, in the assay on T-47D breast and with UACC-257 melanoma was over 100 µM throughout. The TGI in the assay on UACC-62 melanoma and in the assay with UO-31 renal was over 100 µM throughout.

On to `O=C(O)CCC1C(=O)C2CCN1CC2` (stereo not given), for which the TGI with 786-0 renal, in the assay with DU-145 prostate, in the assay on HOP-62 NSCLC, in the assay with KM12 colon, with M14 melanoma and in the assay on MDA-MB-231 breast was over 100 µM in each case. Further, the concentration for total growth inhibition (TGI) in the assay with MDA-N, in the assay with NCI-H23 lung, in the assay on NCI-H522 lung, with OVCAR-4 ovarian, in the assay on PC-3 prostate and in the assay with RPMI-8226 leukemia was over 100 µM each time. Moreover, the TGI with SF-295 CNS, with SK-MEL-2 melanoma, in the assay with SN12C renal, in the assay with SR leukemia, in the assay on T-47D breast and in the assay with UACC-257 melanoma was over 100 µM throughout. Besides, the TGI in the assay with UACC-62 melanoma and in the assay on UO-31 renal was over 100 µM throughout.

As to `OC(Cc1cnnc2ccccc12)C(Cl)(Cl)Cl` (stereo not given), the TGI with 786-0 renal, with DU-145 prostate, in the assay on HOP-62 NSCLC, with KM12 colon, in the assay on M14 melanoma and with MDA-MB-231 breast was over 10 µM throughout. Also, the TGI in the assay on MDA-N, in the assay with NCI-H23 lung, with NCI-H522 lung, in the assay with OVCAR-4 ovarian, in the assay with PC-3 prostate and in the assay with RPMI-8226 leukemia was over 10 µM throughout. Moreover, the TGI with SF-295 CNS, with SK-MEL-2 melanoma, in the assay with SN12C renal, in the assay with SR leukemia, in the assay on T-47D breast and in the assay with UACC-257 melanoma was over 10 µM each time. The TGI in the assay on UACC-62 melanoma and in the assay on UO-31 renal was over 10 µM in each case.

With `O=c1nc(N2CCCCC2)sc2[nH]c3ccccc3c12`, the TGI with 786-0 renal, in the assay on DU-145 prostate, in the assay on HOP-62 NSCLC, in the assay on KM12 colon, in the assay on M14 melanoma and with MDA-MB-231 breast was over 100 µM in each case. Besides, the TGI was over 100 µM in the assay with MDA-N; 26.2 µM in the assay with NCI-H23 lung; over 100 µM with NCI-H522 lung; over 100 µM in the assay with OVCAR-4 ovarian; over 100 µM in the assay on PC-3 prostate; over 100 µM in the assay on RPMI-8226 leukemia. The TGI with SF-295 CNS, with SK-MEL-2 melanoma, in the assay on SN12C renal, with SR leukemia, with T-47D breast and in the assay with UACC-257 melanoma was over 100 µM each time. For the same compound, the TGI with UACC-62 melanoma was over 100 µM; with UO-31 renal, 54.9 µM.

Turning to `O=C1CC(=O)NC(=NN2C(=O)CSC2c2ccc(Cl)cc2)N1` (stereo not given), the TGI is over 100 µM in the assay on 786-0 renal; over 100 µM in the assay on DU-145 prostate; 60.9 µM in the assay with HOP-62 NSCLC; over 100 µM in the assay on KM12 colon; over 100 µM in the assay on M14 melanoma; over 100 µM with MDA-MB-231 breast. Moreover, the TGI with MDA-N, with NCI-H23 lung, in the assay on NCI-H522 lung, in the assay with OVCAR-4 ovarian, with PC-3 prostate and in the assay with RPMI-8226 leukemia was over 100 µM throughout. Besides, the TGI in the assay on SF-295 CNS was over 100 µM; with SK-MEL-2 melanoma, over 100 µM; with SN12C renal, 47.6 µM; with SR leukemia, over 100 µM; in the assay on T-47D breast, over 100 µM; in the assay with UACC-257 melanoma, over 100 µM. Moreover, the total growth inhibition concentration (TGI) in the assay with UACC-62 melanoma and in the assay on UO-31 renal was over 100 µM throughout.

Regarding `C#CC(O)/C=C/C(O)CCCC(O)CC#CC(O)C#CCCCCC(O)/C=C/CCCCCC(=O)CCCCCCCCCCCCCC(O)C(O)C#CC(=O)O` (stereo not given), the TGI in the assay with 786-0 renal, with DU-145 prostate, with HOP-62 NSCLC, with KM12 colon, in the assay with M14 melanoma and in the assay with MDA-MB-231 breast was over 25 µM in each case. Moreover, the TGI was over 25 µM in the assay with MDA-N; over 25 µM in the assay with NCI-H23 lung; 9.83 µM in the assay on NCI-H522 lung; over 25 µM in the assay with OVCAR-4 ovarian; over 25 µM in the assay with PC-3 prostate; over 25 µM with RPMI-8226 leukemia. The TGI was over 25 µM with SF-295 CNS; over 25 µM in the assay on SK-MEL-2 melanoma; over 25 µM with SN12C renal; 19.1 µM in the assay with SR leukemia; over 25 µM in the assay with T-47D breast; over 25 µM in the assay with UACC-257 melanoma. Further, the TGI in the assay with UACC-62 melanoma and in the assay with UO-31 renal was over 25 µM in each case.

The values are drawn from PubChem BioAssay (NCI).
